Source: US20260108687A1 (Belhaven BioPharma Inc., priority 2024, published 2026)

Test: Phase 1 clinical study / Study 101: plasma epinephrine pharmacokinetics
Assay type: in vivo
Details: human, 0.3 mg IM, read-out: mean baseline-corrected Cmax

Cmax: 184 µg/mL
Structure (SMILES): CNC[C@H](O)c1ccc(O)c(O)c1 [Epinephrine IM, epinephrine]
